Data from ChEMBL document CHEMBL1201862, “PubChem BioAssay data set” (2004).
Calls of active or inactive are those of the source.

Assays:
[1] = ADAM10 inhibitors, peptide cleavage, dose response, biochemical, QFRET (AID 743254);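 also: ADAM10 enzyme with the DM2 quenched FRET peptide as substrate; EDANS fluorescence gain as the protease cuts the substrate; inhibitor potency against ADAM10 proteolytic activity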
[2] = molecular target: T1, Disintegrin and metalloproteinase domain-containing protein 17 (Homo sapiens, UniProt P78536); test: ADAM17 protease inhibitors, dose response, counter-screen for ADAM10 exosite inhibitor project, biochemical, quenched FRET substrate (AID 743253)
T1 sequence (P78536 whole entry, the tested form may be a part): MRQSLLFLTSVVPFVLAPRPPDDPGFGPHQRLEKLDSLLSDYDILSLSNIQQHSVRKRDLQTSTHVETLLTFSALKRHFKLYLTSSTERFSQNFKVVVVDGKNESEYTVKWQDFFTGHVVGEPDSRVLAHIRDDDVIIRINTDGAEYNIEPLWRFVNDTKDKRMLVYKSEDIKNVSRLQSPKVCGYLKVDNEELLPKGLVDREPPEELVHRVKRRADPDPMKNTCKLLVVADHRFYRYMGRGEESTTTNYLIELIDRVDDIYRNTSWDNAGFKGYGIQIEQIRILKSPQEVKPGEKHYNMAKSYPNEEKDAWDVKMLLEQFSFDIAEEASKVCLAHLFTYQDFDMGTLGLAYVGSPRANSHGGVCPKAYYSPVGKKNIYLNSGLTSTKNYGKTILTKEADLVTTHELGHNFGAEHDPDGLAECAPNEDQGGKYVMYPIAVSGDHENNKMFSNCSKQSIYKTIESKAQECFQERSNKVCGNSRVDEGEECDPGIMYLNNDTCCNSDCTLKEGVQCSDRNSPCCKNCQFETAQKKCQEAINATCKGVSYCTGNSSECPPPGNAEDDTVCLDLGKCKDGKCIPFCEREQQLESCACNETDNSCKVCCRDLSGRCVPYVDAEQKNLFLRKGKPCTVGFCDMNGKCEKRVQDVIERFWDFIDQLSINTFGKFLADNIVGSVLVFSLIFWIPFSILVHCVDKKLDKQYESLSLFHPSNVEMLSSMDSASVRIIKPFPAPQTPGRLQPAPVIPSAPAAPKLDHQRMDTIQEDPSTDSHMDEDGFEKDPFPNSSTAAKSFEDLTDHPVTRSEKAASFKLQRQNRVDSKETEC

[3] = molecular target: T1, Disintegrin and metalloproteinase domain-containing protein 17; test: exosite inhibitors of ADAM17, dose response, biochemical (AID 743260)
[4] = cells; type: functional, cell-based
[5] = luciferase reporter signal reduction – luminescence, H4-C neuroglioblastoma cells, dose response (AID 2458); type: functional, cell-based;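 also: H4 neuroglioblastoma cells stably carrying a luciferase reporter gene fusion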
[6] = system: BJ; test: cells; type: functional, cell-based; details: Homo sapiens
[7] = inhibitors of SNCA 5'UTR-driven reporter translation, confirmation, H4 neuroglioma cells, luminescence (AID 1988); type: functional, cell-based
[8] = system: BJ; test: cytotoxicity toward BJ-TERT-LT-ST fibroblasts, dose response, cell-based, RAS-independent, luminescence (AID 1935); type: functional; details: Homo sapiens;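 also: BJ fibroblasts immortalized with TERT plus LT and ST oncogenes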
[9] = cytotoxicity toward DRD oncogenic fibroblasts, dose response, cell-based, non-viral oncogenic, luminescence (AID 1934); type: functional; details: Homo sapiens
[10] = inhibitors of SNCA 5'UTR-driven translation, confirmation, luminescence, H4 neuroglioblastoma cells, dose confirmation (AID 2454); type: functional, cell-based;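 also: H4 neuroglioblastoma cells carrying an alpha-synuclein 5'UTR luciferase reporter; potency for inhibition of the luciferase signal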
[11] = HEK293 cell cytotoxicity, dose response, cytotoxicity control, dry powder samples (AID 720567); type: functional, cell-based
[12] = system: BJ; test: cytotoxicity toward BJ-TERT fibroblasts, dose response, cell-based, RAS-independent, luminescence (AID 1933); type: functional; details: Homo sapiens
[13] = inhibitors of firefly luciferase expression or activity, dose response, H4 neuroglioma cells, luminescence (AID 1990); type: functional, cell-based
[14] = molecular target: RNA-editing ligase 1, mitochondrial (Trypanosoma brucei brucei, UniProt P86926); test: TbREL1 ligase inhibitors, dose response, biochemical, fluorescence, Trypanosoma brucei (AID 1117295); type: functional
Chain of RNA-editing ligase 1, mitochondrial (P86926 whole entry, the tested form may be a part): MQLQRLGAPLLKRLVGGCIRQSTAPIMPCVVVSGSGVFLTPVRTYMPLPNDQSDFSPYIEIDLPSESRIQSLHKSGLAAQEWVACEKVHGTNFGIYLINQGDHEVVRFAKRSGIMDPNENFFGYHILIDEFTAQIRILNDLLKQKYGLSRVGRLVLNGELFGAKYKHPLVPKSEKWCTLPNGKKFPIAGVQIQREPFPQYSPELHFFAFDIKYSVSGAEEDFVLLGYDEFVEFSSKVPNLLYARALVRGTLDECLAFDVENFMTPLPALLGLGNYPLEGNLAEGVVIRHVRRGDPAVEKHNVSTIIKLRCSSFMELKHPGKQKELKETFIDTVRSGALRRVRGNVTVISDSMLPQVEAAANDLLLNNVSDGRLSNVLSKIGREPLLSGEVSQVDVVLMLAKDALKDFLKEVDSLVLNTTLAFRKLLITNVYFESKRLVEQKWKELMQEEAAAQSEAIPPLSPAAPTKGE

[15] = molecular target: T2, Oxysterols receptor LXR-beta (Homo sapiens, UniProt P55055); type: functional, cell-based;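 also: Cell-based luminescence dose-response assay of agonist activity at LXR, run as a confirmatory counterscreen to a daf-12 agonist screen; HEK293 cells with Gal4-LXR fusion and GAL4-driven luciferase reporter; agonist potency from rising luciferase signal of a Gal4-LXR reporter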
T2 sequence (P55055 whole entry): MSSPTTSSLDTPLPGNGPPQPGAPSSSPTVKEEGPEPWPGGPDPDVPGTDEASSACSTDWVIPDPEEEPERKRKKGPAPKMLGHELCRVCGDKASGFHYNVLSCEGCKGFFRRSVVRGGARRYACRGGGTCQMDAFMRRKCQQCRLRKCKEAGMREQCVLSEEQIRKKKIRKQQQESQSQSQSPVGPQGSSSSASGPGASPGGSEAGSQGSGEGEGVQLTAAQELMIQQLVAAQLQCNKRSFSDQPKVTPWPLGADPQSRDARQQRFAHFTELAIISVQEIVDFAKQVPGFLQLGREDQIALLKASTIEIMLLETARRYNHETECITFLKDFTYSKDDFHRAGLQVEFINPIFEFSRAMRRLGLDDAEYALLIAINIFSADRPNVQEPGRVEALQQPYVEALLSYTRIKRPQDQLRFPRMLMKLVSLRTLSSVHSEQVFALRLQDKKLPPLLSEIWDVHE

[16] = cells
[17] = molecular target: T3, NAD-dependent protein deacylase sirtuin-5, mitochondrial (Homo sapiens, UniProt Q9NXA8); test: SIRT5 desuccinylase inhibitors, dose response, biochemical, fluorescence imaging, cherry-pick, set 5 (AID 720591);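 also: desuccinylation of succinyl peptide AMC substrate read as fluorescence after trypsin release; potency of inhibitors that lower fluorescence and may act on trypsin instead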
T3 sequence (Q9NXA8 whole entry): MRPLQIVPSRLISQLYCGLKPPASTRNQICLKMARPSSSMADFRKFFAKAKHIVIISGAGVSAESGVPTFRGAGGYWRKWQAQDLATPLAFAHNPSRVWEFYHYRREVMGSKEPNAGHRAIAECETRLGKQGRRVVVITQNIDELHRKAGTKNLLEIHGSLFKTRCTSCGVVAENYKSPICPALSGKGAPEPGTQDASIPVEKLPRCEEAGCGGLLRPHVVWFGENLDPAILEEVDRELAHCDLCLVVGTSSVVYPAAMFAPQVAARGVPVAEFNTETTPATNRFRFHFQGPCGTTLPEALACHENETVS

[18] = Luminescence Cell-Based Dose Response HTS to Identify Inhibitors of 5'UTR Stem-Loop Driven Prion Protein mRNA Translation in H4 Neuroglioblastoma Cells. [Related pubchem assays: 1827 (Project Summary), 1813 (Primary HTS)]; type: functional
[19] = NIH:OVCAR-3 ovarian cancer cell cytotoxicity, dose response, PAX8 inhibitor project, plate reader, dry powder samples (AID 743044); type: functional, cell-based
[20] = IOSE-T80 ovarian epithelial cell cytotoxicity, dose response, cytotoxicity control for PAX8 inhibitor project, plate reader, dry powder samples (AID 743045); type: functional, cell-based
[21] = cytotoxicity in OVCAR8 ovarian cancer cells, dose response, PAX8 project, cell-based, plate reader, dry powder samples (AID 743197); type: functional; details: OVCAR-8
[22] = molecular target: Paired box protein Pax-8 (Homo sapiens, UniProt Q06710); test: inhibitors of PAX8-driven TPO luciferase reporter, dose response, RMG-I cells, cherry-pick (AID 687027); type: functional, cell-based;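 also: luciferase reporter driven by Pax8 target thyroperoxidase promoter measured by SteadyGlo luminescence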
Chain of Paired box protein Pax-8 (Q06710 whole entry): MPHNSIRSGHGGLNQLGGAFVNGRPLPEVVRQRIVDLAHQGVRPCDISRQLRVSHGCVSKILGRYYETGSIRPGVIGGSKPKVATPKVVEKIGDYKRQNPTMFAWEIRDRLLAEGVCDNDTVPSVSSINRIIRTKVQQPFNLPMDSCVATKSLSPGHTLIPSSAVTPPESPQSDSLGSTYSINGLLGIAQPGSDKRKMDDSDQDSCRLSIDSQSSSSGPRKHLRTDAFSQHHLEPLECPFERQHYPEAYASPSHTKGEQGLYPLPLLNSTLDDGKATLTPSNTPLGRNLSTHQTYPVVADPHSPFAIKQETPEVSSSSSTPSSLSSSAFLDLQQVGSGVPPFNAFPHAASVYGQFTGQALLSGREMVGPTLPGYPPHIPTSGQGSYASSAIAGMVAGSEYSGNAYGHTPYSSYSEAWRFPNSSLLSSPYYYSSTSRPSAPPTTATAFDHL

[23] = molecular target: T3, NAD-dependent protein deacylase sirtuin-5, mitochondrial; test: SIRT5 deacylase inhibitors, dose response, biochemical, fluorescence imaging, cherry-pick, set 6 (AID 720597)
[24] = IGROV1 ovarian cancer cell cytotoxicity, dose response, PAX8 inhibitor project, plate reader, dry powder samples (AID 743043); type: functional, cell-based; details: IGROV-1
[25] = A2780 ovarian cancer cell cytotoxicity, dose response, cytotoxicity control, plate reader, dry powder samples (AID 743046); type: functional, cell-based
[26] = A375 melanoma cell viability loss, dose response, counter-screen for MITF inhibitor project, CellTiter-Glo luminescence, dry powder, set 4 (AID 624364); type: functional, cell-based; details: A-375;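 also: A375 melanoma cells are MITF independent so this is a counter screen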
[27] = A375 melanoma cell cytotoxicity, dose response, counter-screen for MITF inhibitor project, CellTiter-Glo luminescence, dry powder, set 2 (AID 624489); type: functional, cell-based; details: A-375;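 also: actives are compounds lowering A375 viability meaning general cytotoxicity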
[28] = LGR2 antagonists, dose response, cell-based, HEK293, CRE-luciferase reporter, cherry pick, set 2 (AID 743343); type: functional;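 also: transfected cells were stimulated with diluted bursicon conditioned medium after compound addition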
[29] = A549 cell cytotoxicity, dose response, cytotoxicity control, plate reader, cherry-pick, antagonist series (AID 743412); type: functional, cell-based
[30] = HEK293 cell cytotoxicity, dose response, cytotoxicity control, plate reader, cherry-picked samples (AID 743446); type: functional, cell-based
[31] = P. falciparum 3D7-ScDHODH growth inhibitors, dose response, SYBR Green, dry powder samples (AID 1159570); type: functional, cell-based;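 also: parasite growth measured after 72 hours of compound exposure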
[32] = P. falciparum Dd2 growth inhibitors, dose response, SYBR Green, cherry-picked samples (AID 1159567); type: functional, cell-based
[33] = P. falciparum ATP4 D1247Y mutant growth inhibitors, dose response, NITD609-resistant line, SYBR Green, dry powder (AID 1159571); type: functional, cell-based;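 also: parasites synchronized at ring stage by sorbitol before testing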
[34] = P. falciparum Dd2 growth inhibitors, dose response, SYBR Green, dry powder samples (AID 1159566); type: functional, cell-based;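 also: potency for growth inhibition with lower SYBR green DNA signal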
[35] = HepG2 cell cytotoxicity, dose response, cytotoxicity control, plate reader, cherry-pick, antagonist series (AID 743416); type: functional, cell-based
[36] = MC4R antagonists, dose response, counter-screen for LGR2 antagonist project, cell-based, plate reader, cherry pick (AID 743444); type: functional;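 also: transfected HEK 293 cells stimulated with alpha-MSH peptide; potency of inhibitors of the alpha-MSH evoked signal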
[37] = HepG2 cell cytotoxicity, dose response, cytotoxicity control, plate reader, dry powder samples (AID 1159569); type: functional, cell-based;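 also: inhibitor potency with signal falling toward the positive control level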
[38] = HepG2 cell cytotoxicity, dose response, cytotoxicity control, cherry-picked samples (AID 1159577); type: functional, cell-based

**Q.** Which IC50 [1] does the source give for `COc1ccc(N(CC(O)Cn2c3ccccc3c3ccccc32)S(=O)(=O)c2ccccc2)cc1` (stereo not drawn) here?
**A.** Its IC50 is > 69.5 µM (inactive).

**Q.** What about the IC50 [2] of the same molecule?
**A.** Its IC50 is > 69.5 µM (inactive).

**Q.** What about the IC50 [3] of the same molecule?
**A.** The IC50 was > 69.5 µM (inactive).

**Q.** Which results are given for `COc1ccc(NC(=O)C(=O)c2cn(CC(=O)N3CCCC3)c3ccccc23)cc1`?
**A.** EC50 [4]: 0.515 µM (active); EC50 [5]: 0.323 µM (active); EC50 [6]: 1.54 µM (active); EC50 [7]: < 0.1 µM (active); EC50 [8]: 2.34 µM (inconclusive); EC50 [9]: 2.25 µM (active); EC50 [10]: 0.681 µM (active); AC50 [11]: 0.143 µM (active); EC50 [12]: 2.77 µM (active); EC50 [13]: 0.269 µM (inconclusive)

**Q.** Which IC50 [14] does the source give for `NC(=O)[C@H]1CC2(CC(c3cccc(NC(=O)[C@H]4CCC(=O)N4)c3)=NO2)CN1C(=O)c1ccccc1` (stereo partly drawn) here?
**A.** The IC50 was 19.7 µM (inactive).

**Q.** For `O=C1C(=C2CCc3ccccc32)Cc2ccccc21`, which EC50 [15] is on record?
**A.** Its EC50 is > 67.4 µM (inactive).

**Q.** What about the EC50 [16] of the same molecule?
**A.** The EC50 was > 67.4 µM (inactive).

**Q.** With `COc1ccc(CC(=O)Nc2ccc(S(=O)(=O)N3CCN(C)CC3)cc2)cc1` as the molecule, how does the AC50 [17] read?
**A.** Its AC50 is > 30 µM (inactive).

**Q.** Which EC50 [4] does the source give for `O=C(N/N=C/c1ccc(Cl)cc1)c1sccc1OCc1ccc(F)cc1` here?
**A.** Its EC50 is 1.3 µM (active).

**Q.** What about the EC50 [5] of the same molecule?
**A.** Its EC50 is 0.889 µM (active).

**Q.** What about the EC50 [18] of the same molecule?
**A.** The EC50 was < 0.1 µM (active).

**Q.** And the EC50 [7]?
**A.** Its EC50 is < 0.1 µM (active).

**Q.** And the EC50 [10]?
**A.** The EC50 was > 3.8 µM (not active).

**Q.** What about the AC50 [11] of the same molecule?
**A.** The AC50 was 22.3 µM (active).

**Q.** What about the EC50 [13] of the same molecule?
**A.** The EC50 was 10.2 µM (active).

**Q.** For `N=C(NC(=S)Nc1ccc2c(c1)OCO2)c1ccccc1`, which EC50 [15] is on record?
**A.** The EC50 was > 67.5 µM (inactive).

**Q.** And the EC50 [16]?
**A.** Its EC50 is > 67.5 µM (inactive).

**Q.** For `O=C(C[C@@H]1C[C@H]2c3cc(NS(=O)(=O)c4ccc(F)cc4)ccc3O[C@H]2[C@H](CO)O1)NCc1ccc(-c2ccccc2)cc1`, which AC50 [19] is on record?
**A.** The AC50 was 9.15 µM (active).

**Q.** And the AC50 [20]?
**A.** The AC50 was 17.6 µM (active).

**Q.** What about the AC50 [21] of the same molecule?
**A.** Its AC50 is 14.8 µM (active).

**Q.** What about the AC50 [22] of the same molecule?
**A.** Its AC50 is 3.44 µM (active).

**Q.** What about the AC50 [23] of the same molecule?
**A.** Its AC50 is > 30 µM (inactive).

**Q.** And the AC50 [24]?
**A.** The AC50 was 14.6 µM (active).

**Q.** And the AC50 [25]?
**A.** The AC50 was 10.6 µM (active).

**Q.** With `CCN1CCN(C2=C(N(C)C(C)=O)C(=O)c3ccccc3C2=O)CC1` as the molecule, how does the AC50 [26] read?
**A.** The AC50 was 12.4 µM (active).

**Q.** And the AC50 [27]?
**A.** Its AC50 is 6.2 µM (active).

**Q.** With `O=C1C(NS(=O)(=O)c2ccc(Br)s2)=C(N2CCSCC2)C(=O)c2ccccc21` as the molecule, how does the AC50 [26] read?
**A.** Its AC50 is > 70 µM (inactive).

**Q.** And the AC50 [27]?
**A.** The AC50 was > 70 µM (inactive).

**Q.** With `O=S1(=O)N[C@@H](Cc2ccccc2)COc2cccc(N3CCCC3)c21` as the molecule, how does the AC50 [17] read?
**A.** The AC50 was > 30 µM (inactive).

**Q.** With `COc1ccc(NC(=O)N(C)C[C@H]2Oc3ccc(NS(=O)(=O)c4ccc(F)cc4)cc3C(=O)N([C@@H](C)CO)C[C@H]2C)cc1` as the molecule, how does the AC50 [23] read?
**A.** Its AC50 is > 30 µM (inactive).

**Q.** With `N#Cc1ccc(-c2ccc([C@@H]3[C@@H]4CN(C(=O)C5CCC5)C[C@H]3N4)cc2)cc1` as the molecule, how does the AC50 [28] read?
**A.** Its AC50 is 5.97 µM (active).

**Q.** And the AC50 [29]?
**A.** Its AC50 is 7.74 µM (active).

**Q.** And the AC50 [30]?
**A.** The AC50 was > 52 µM (inactive).

**Q.** What about the AC50 [31] of the same molecule?
**A.** Its AC50 is 1.19 µM (active).

**Q.** What about the AC50 [32] of the same molecule?
**A.** The AC50 was 0.825 µM (active).

**Q.** And the AC50 [33]?
**A.** Its AC50 is 1.35 µM (active).

**Q.** And the AC50 [34]?
**A.** The AC50 was 1.04 µM (active).

**Q.** What about the AC50 [35] of the same molecule?
**A.** Its AC50 is 22.7 µM (active).

**Q.** And the AC50 [36]?
**A.** Its AC50 is 7.86 µM (active).

**Q.** And the AC50 [37]?
**A.** The AC50 was > 100 µM (inactive).

**Q.** Which AC50 [31] does the source give for `COc1ccccc1S(=O)(=O)N(C)C[C@@H]1OCc2ccccc2-c2c(n(C)c3ccccc23)C(=O)N([C@H](C)CO)C[C@@H]1C` here?
**A.** Its AC50 is 0.561 µM (active).

**Q.** What about the AC50 [32] of the same molecule?
**A.** The AC50 was 0.729 µM (active).

**Q.** And the AC50 [33]?
**A.** The AC50 was 0.548 µM (active).

**Q.** And the AC50 [34]?
**A.** Its AC50 is 0.423 µM (active).

**Q.** What about the AC50 [38] of the same molecule?
**A.** Its AC50 is 36.7 µM (active).

**Q.** And the AC50 [37]?
**A.** The AC50 was 89.2 µM (active).

**Q.** What does the source list for `COc1ccc(S(=O)(=O)N2CCCCN3[C@@H](CO)[C@@H](c4ccc(C5=CCCCC5)cc4)[C@@H]3C2)cc1`?
**A.** AC50 [32]: 0.972 µM (active); AC50 [38]: 10.2 µM (active)

**Q.** With `COC(=O)C1=C(C)N(Cc2ccccc2C(F)(F)F)C(NCc2ccccc2)=NC1CCc1ccccc1` (stereo not drawn) as the molecule, how does the IC50 [14] read?
**A.** Its IC50 is > 96.6 µM (inactive).
